Results published in PubChem BioAssay (NCI).
Several values for one entry are separate records, joined by “and”; a condition that tells them apart may be missing. Identical values can stand only once.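 Growth conditions: 96-well plates. Treatment: test compound, 48 hours, 5 concentrations. Analysis: linear interpolation between bracketing concentrations; unreached endpoints set to highest concentration. GI50 = concentration required for 50% inhibition of growth. TGI: concentration producing complete growth inhibition.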

What was measured:
Assay in all cases: inhibition of tumour cell growth, NCI panel, 48 h
[1] = tested on: CCRF-CEM leukemia
[2] = tested on: DU-145 prostate
[3] = tested on: HCT-116 colon
[4] = tested on: IGROV1 ovarian
[5] = tested on: NCI-H23 lung
[6] = tested on: PC-3 prostate
[7] = tested on: RXF 393 renal
[8] = tested on: SF-268 CNS
[9] = tested on: SK-OV-3 ovarian
[10] = tested on: SW-620 colon

Row | SMILES | GI50 [1] | TGI [1] | GI50 [2] | TGI [2] | GI50 [3] | TGI [3] | GI50 [4] | TGI [4] | GI50 [5] | TGI [5] | GI50 [6] | TGI [6] | GI50 [7] | TGI [7] | GI50 [8] | TGI [8] | GI50 [9] | TGI [9] | GI50 [10] | TGI [10]
1 | Oc1ccc(C(c2ccc(O)cc2)c2ccc(Br)cn2)cc1 | 14.7 µM | > 100 µM | 2.8 µM | > 69.3 µM | 0.517 µM | 14.4 µM | 0.476 µM | 42.7 µM | 0.267 µM | 0.772 µM | 0.257 µM | 0.72 µM | 0.217 µM | 0.532 µM | 21.5 µM | > 91 µM | 12.5 µM | 65.4 µM | 35.9 µM | > 100 µM
2 | Cc1cc[n+]2c(c1)-c1cc(C)cc[n+]1CC2 | – | > 100 µM | – | > 100 µM | – | > 100 µM | – | > 100 µM | – | > 100 µM | – | > 100 µM | – | > 100 µM | – | > 100 µM | – | > 100 µM | – | > 100 µM
3 | Cn1cc(C2=C(c3cccc(OC[C@@H](O)CO)c3)C(=O)NC2=O)c2ccccc21 | > 22.5 µM | > 25 µM | > 25 µM | > 25 µM | > 15.8 µM | > 25 µM | > 25 µM | > 25 µM | > 25 µM | > 25 µM | > 25 µM | > 25 µM | 2.08 µM | > 25 µM | > 25 µM | > 25 µM | > 18.3 µM | > 25 µM | > 20.1 µM | > 25 µM
4 | Cc1cc(C#Cc2ccc(C(C)(C)C)cc2)ccc1-n1c(/C=C/c2ccc(O)cc2O)nc2ccccc2c1=O | 3.85 µM | > 100 µM | 3.42 µM | 13.3 µM | 2.89 µM | 10.8 µM | 7.48 µM | 26.8 µM | 2.42 µM | 6.8 µM | 3.67 µM | 16.2 µM | 1.88 µM | 4.46 µM | 4.82 µM | 18 µM | 10.9 µM | 30.6 µM | 1.81 µM | 3.71 µM
5 | Cc1cc(N=Nc2ccccc2C)ccc1N | 0.435 µM | > 100 µM | 9.35 µM | 27.2 µM | 13.2 µM | 29.5 µM and 27.3 µM | 5.1 µM | 48.3 µM and 20 µM | 16.5 µM | 14.7 µM and 42.3 µM | 5.99 µM | 26.8 µM and 91.5 µM | 15.1 µM | 22.9 µM and 33.7 µM | 4.36 µM | 33.6 µM | 22.2 µM | 67 µM and 66.9 µM | 14.8 µM | 48.5 µM and 30.8 µM
6 | Cc1ccc(-c2nc([P+](c3ccccc3)(c3ccccc3)c3ccccc3)c(S(=O)(=O)c3ccc(C)cc3)o2)cc1 | 0.606 µM | 6.94 µM | 1.27 µM | 2.52 µM | 1.37 µM | 2.75 µM | 1.61 µM | 3.15 µM | 1.68 µM | 3.5 µM | 1.43 µM | 3.28 µM | 1.4 µM | 2.79 µM | 1.55 µM | 2.97 µM | 3.74 µM | 12.5 µM | 0.929 µM | 2.47 µM
7 | C[C@]12CC[C@@H]3c4cc(OC(F)F)c(OS(N)(=O)=O)cc4CC[C@H]3[C@@H]1CC[C@@H]2O | 0.398 µM | > 100 µM | 0.49 µM | > 100 µM | 0.434 µM | 15 µM | 0.646 µM | 24.9 µM | 0.621 µM | 20.1 µM | 0.537 µM | 47.8 µM | 0.139 µM | 0.589 µM | 1.49 µM | 60.3 µM | 0.683 µM | 76.9 µM | 0.407 µM | 28.8 µM
8 | COc1ccc(-c2nc(/C=C3\SC(=NCc4ccccc4)NC3=O)c3ccccn23)cc1 | 2.83 µM | > 100 µM | 0.685 µM | 1.81 µM | 0.276 µM | 1.06 µM | 1.47 µM | 4.22 µM | 1.37 µM | 3.51 µM | 1.28 µM | 4.35 µM | 1.18 µM | 2.97 µM | 0.377 µM | 1.57 µM | 2.05 µM | 4.28 µM | 1.68 µM | 3.45 µM
9 | c1ccc2cc(-c3n(Cc4ccc5ccccc5n4)c4ccccc4[n+]3Cc3ccc4ccccc4n3)ccc2c1 | 0.333 µM | 1.67 µM | 0.395 µM | 1.65 µM | 0.272 µM | 1.12 µM | 0.29 µM | 1.28 µM | 0.285 µM | 1.09 µM | 0.184 µM | 1.12 µM | 0.245 µM | 1.24 µM | 0.332 µM | 1.42 µM | 0.268 µM | 0.912 µM | 0.346 µM | 1.42 µM
10 | OCCNC1c2cc(Cl)ccc2-c2c(Cl)cc(Cl)cc21 (centres undefined) | – | 47.4 µM | – | > 100 µM | – | > 100 µM | – | 47 µM | – | > 100 µM | – | 77.3 µM | – | > 100 µM | – | > 100 µM | – | > 100 µM | – | > 100 µM
11 | CCC1(O)C(=O)OCc2c1cc1n(c2=O)Cc2cc3c(NC(=O)CN)cccc3nc2-1 (centres undefined) | 0.0208 µM | 1.43 µM | 0.348 µM | > 20.2 µM | 1.01 µM | > 62.5 µM | 3.9 µM | 73.4 µM | 0.27 µM | 2.58 µM | 2.72 µM | > 100 µM | 0.515 µM | 3.91 µM | 0.191 µM | 46.5 µM | 0.377 µM | 31.3 µM | 1.75 µM | 97.9 µM
12 | Nc1nc(Nc2ccccc2SSc2ccccc2Nc2nc(N)nc(C(Cl)(Cl)Cl)n2)nc(C(Cl)(Cl)Cl)n1 | 3.23 µM | 14 µM | 9.57 µM | 24.4 µM | 4.82 µM | 16.9 µM | 3.49 µM | 15.7 µM | 3.66 µM | 13.9 µM | 3.56 µM | 18.6 µM | 3.47 µM | 10.3 µM | 3.1 µM | 13.8 µM | 26.4 µM | 91.3 µM | 2.67 µM | 7.99 µM
13 | COc1cc2nc(-c3cc(F)ccc3O)nc(N[C@@H]3CNC[C@H]3C(C)(C)O)c2cc1OC | 2.29 µM | 7.3 µM | 1.51 µM | 2.96 µM | 1.35 µM | 2.75 µM | 1.47 µM | 3.43 µM | 1.67 µM | 3.42 µM | 2.09 µM | 5.7 µM | 1.27 µM | 2.55 µM | 1.32 µM | 2.75 µM | 2.29 µM | 4.72 µM | 1.82 µM | 3.39 µM
14 | Oc1cccc2ccc(N/N=C/c3cc(CN4CCOCC4)c(O)c4ncccc34)nc12 | 0.0391 µM | 9.95 µM | 0.0645 µM | 6.22 µM | 0.0223 µM | 2.77 µM | 0.066 µM | 4.94 µM | 0.0327 µM | 1.73 µM | 0.0346 µM | 4.92 µM | 0.048 µM | 1.66 µM | 0.0372 µM | 13.4 µM | 0.0272 µM | 0.368 µM | – | 2.41 µM
15 | Cc1cccc2c3c(sc12)C(c1ccc(Cl)cc1)C(C#N)=C(N)O3 (centres undefined) | 0.382 µM | 32.1 µM | 0.459 µM | 11.6 µM | 0.389 µM | 4.95 µM | 0.426 µM | 11.8 µM | 0.436 µM | 10.4 µM | 0.395 µM | 12.8 µM | 0.215 µM | 0.649 µM | 1.41 µM | 14.8 µM | 3.59 µM | 27.2 µM | 0.416 µM | 11.6 µM
16 | O=C(CCCCCCN1CC(=O)N2[C@@H](c3ccc(Cl)c(Cl)c3)c3[nH]c4ccccc4c3C[C@H]2C1=O)NO | 1.07 µM | > 33.3 µM | 4.01 µM | 15.3 µM | 1.47 µM | 6.92 µM | 1.32 µM | 5.07 µM | 4.73 µM | 13.5 µM | 2.39 µM | 10.7 µM | 1.73 µM | 6.04 µM | 4.66 µM | 10.5 µM | 4.58 µM | 9.81 µM | 1.97 µM | 9.3 µM
17 | COc1cc(/C=C/C(=O)c2cccc(-n3cc(-c4ccc(Cl)cc4)[nH]c3=O)c2)cc(OC)c1OC | 5.43 µM | > 100 µM | 4.53 µM | 27 µM | 1.39 µM | 2.68 µM | 4.68 µM | 19 µM | 3.56 µM | 16.9 µM | 16.5 µM | > 100 µM | 3.22 µM | 7.7 µM | 5.07 µM | 39.2 µM | 31.4 µM | > 100 µM | 1.75 µM | 3.17 µM
18 | CC(=O)NCc1cccc(C#Cc2cncnc2Nc2ccc(OCc3cccc(F)c3)c(Cl)c2)c1 | 13.4 µM | > 25 µM | 10.1 µM | > 25 µM | 9.05 µM | > 25 µM | 5.51 µM | > 25 µM | 14.1 µM | > 25 µM | 8.37 µM | > 25 µM | 13 µM | > 25 µM | 16.7 µM | > 25 µM | > 12.9 µM | > 25 µM | 18.3 µM | > 25 µM
19 | O=C1OC(C(O)CO)C(O)=C1O (centres undefined) | 239 µM and 275 µM | 576 µM and 792 µM | 1610 µM and 1690 µM | 3040 µM and 3110 µM | 250 µM and 641 µM | 534 µM and 2110 µM | 2040 µM and > 2490 µM | 4140 µM and > 4350 µM | 2920 µM and > 4420 µM | > 10000 µM | 2190 µM and > 4180 µM | 5670 µM and > 5820 µM | 1650 µM and 1750 µM | 3080 µM and 3400 µM | 2120 µM and 1960 µM | 4020 µM | 6030 µM and > 4760 µM | > 10000 µM | 191 µM and 189 µM | 408 µM and 412 µM
20 | CN(CCNCc1ccccn1)CCNCc1ccccn1 | 3.87 µM | > 100 µM | 3.6 µM | 12.4 µM | 2.18 µM | 4.7 µM | 3.23 µM | 12.6 µM | 3.55 µM | > 100 µM | 2.27 µM | 7.59 µM | 1.94 µM | 3.81 µM | 3.96 µM | 15.4 µM | 2.24 µM | 5.27 µM | 3.18 µM | 11.3 µM
21 | COC1=C(OC)C(=O)C(SC/C=C(\C)CCCC(C)CCCC(C)CCCC(C)C)=CC1=O (centres undefined) | 1.19 µM | > 100 µM | 4.27 µM | > 100 µM | 0.574 µM | > 39.7 µM | 2.94 µM | > 29.2 µM | 1.37 µM | 36.1 µM | 0.255 µM | > 100 µM | 1.36 µM | > 91.6 µM | 1.98 µM | > 100 µM | 2.47 µM | > 91.6 µM | 0.872 µM | > 100 µM
